Data: patent US11731972B2, “Spiro compounds as glycosidase inhibitors” (Asceneuron SA, priority 2018, dated 2023)

Target: His-Tagged hOGA (human O-GlcNAcase) (Homo sapiens (Human), UniProt O60502)
Assay: Human O-GlcNAcase enzyme inhibition assay (Example B01)
Type: biochemical
Conditions: OGA enzyme inhibition assay; FL-GlcNAc substrate, 60 min, room temperature, pH 6.5
Procedure: Example B01: Human O-GlcNAcase Enzyme Inhibition Assay
5 μl of the appropriate concentration of a solution of inhibitor in McIlvaine's Buffer (pH 6.5) in 2% DMSO (for a dose response curve calculation) is added into each well of a 384-well plate (Greiner, 781900). Then, 20 nM of His-Tagged hOGA and 10 μM of FL-GlcNAc (Fluorescein mono-beta-D-(2-deoxy-2-N-acetyl) glucopyranoside; Marker Gene Technologies Inc, M1485) were added to the 384-well plate for a final volume of 20 μl. After incubation for 60 min at room temperature, the reaction was terminated by the addition of 10 μL of stop buffer (200 mM glycine, pH 10.75). The level of fluorescence (λexc 485 nm; (λemm 520 nm) was read on a PHERAstar machine. The amount of fluorescence measured was plotted against the concentration of inhibitor to produce a sigmoidal dose response curve to calculate an IC50. All individual data was corrected by subtraction of the background (Thiamet 3 uM=100% inhibition) whilst 0.5% DMSO was considered as the control value (no inhibition).

His-Tagged hOGA (human O-GlcNAcase), sequence (O60502 whole entry): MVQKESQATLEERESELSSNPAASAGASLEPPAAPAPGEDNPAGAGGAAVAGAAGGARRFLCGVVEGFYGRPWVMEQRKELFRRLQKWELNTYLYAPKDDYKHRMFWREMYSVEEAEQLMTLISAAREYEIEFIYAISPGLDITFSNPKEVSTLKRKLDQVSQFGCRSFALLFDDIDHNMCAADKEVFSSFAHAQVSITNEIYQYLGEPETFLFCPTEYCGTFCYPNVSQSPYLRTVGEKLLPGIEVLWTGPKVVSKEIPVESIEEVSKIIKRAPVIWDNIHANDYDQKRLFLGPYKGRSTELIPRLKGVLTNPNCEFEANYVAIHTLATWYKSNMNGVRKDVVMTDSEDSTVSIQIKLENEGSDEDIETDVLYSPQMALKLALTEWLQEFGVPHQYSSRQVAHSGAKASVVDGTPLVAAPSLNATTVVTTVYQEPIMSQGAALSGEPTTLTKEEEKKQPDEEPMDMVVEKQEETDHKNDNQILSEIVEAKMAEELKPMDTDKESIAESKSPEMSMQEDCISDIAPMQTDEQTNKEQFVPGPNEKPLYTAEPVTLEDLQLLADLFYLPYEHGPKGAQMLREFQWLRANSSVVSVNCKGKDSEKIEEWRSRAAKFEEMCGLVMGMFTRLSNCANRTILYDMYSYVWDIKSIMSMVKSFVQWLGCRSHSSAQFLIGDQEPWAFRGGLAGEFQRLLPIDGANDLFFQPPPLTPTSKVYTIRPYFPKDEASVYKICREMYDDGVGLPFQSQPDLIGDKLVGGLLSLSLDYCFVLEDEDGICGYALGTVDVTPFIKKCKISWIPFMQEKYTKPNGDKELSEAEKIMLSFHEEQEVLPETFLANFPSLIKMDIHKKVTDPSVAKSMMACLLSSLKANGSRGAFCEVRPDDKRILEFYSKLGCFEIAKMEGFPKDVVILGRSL

IC50 | SMILES
50 to 200 nM | CC(c1ccc2scnc2c1)N1CCC2(CC1)NC(=O)N(Cc1cncnc1)C2=O (racemic) [Example 5]
200 to 1000 nM | COCCN1C(=O)NC2(CCN(C(C)c3ccc4scnc4c3)CC2)C1=O (racemic) [Example 7, 8-(1-(benzo[d]thiazol-5-yl)ethyl)-3-(2-methoxyethyl)-1,3,8-triazaspiro[4.5]decane-2,4-dione]
< 50 nM | CC(c1ccc2c(c1)OCC2)N1CCC2(CC1)NC(=O)N(Cc1ccc(S(C)(=O)=O)cc1)C2=O (racemic) [Example 11]
50 to 200 nM | CC(c1ccc2scnc2c1)N1CCC2(CC1)NC(=O)N(c1cncnc1)C2=O (racemic) [Example 62]
50 to 200 nM | COCCN1C(=O)NC2(CCN(C(C)c3ccc4c(c3)OCC4)CC2)C1=O (racemic) [Example 6, 8-(1-(2,3-dihydrobenzofuran-6-yl)ethyl)-3-(2-methoxyethyl)-1,3,8-triazaspiro[4.5]decane-2,4-dione]
50 to 200 nM | CC(c1ccc2scnc2c1)N1CCC2(CC1)NC(=O)N(c1ccc(F)cc1)C2=O (racemic) [Example 63]
200 to 1000 nM | CC(c1ccc2scnc2c1)N1CCC2(CC1)CN(c1ccc(F)cc1)C(=O)N2 (racemic) [Example 36, 8-(1-(benzo[d]thiazol-5-yl)ethyl)-3-(4-fluorophenyl)-1,3,8-triazaspiro[4.5]decan-2-one]
< 50 nM | CC(c1ccc2scnc2c1)N1CCC2(CC1)CN(c1cccnn1)C(=O)N2 (racemic) [Example 59]
50 to 200 nM | CC(c1ccc2scnc2c1)N1CCC2(CC1)CN(c1cccc(S(C)(=O)=O)c1)C(=O)N2 (racemic) [Example 35, 8-(1-(benzo[d]thiazol-5-yl)ethyl)-3-(3-(methylsulfonyl)phenyl)-1,3,8-triazaspiro[4.5]decan-2-one]
50 to 200 nM | CC(c1ccc2c(c1)OCC2)N1CCC2(CC1)NC(=O)N(Cc1cncnc1)C2=O (racemic) [Example 4, 8-(1-(2,3-dihydrobenzofuran-6-yl)ethyl)-3-(pyrimidin-5-ylmethyl)-1,3,8-triazaspiro[4.5]decane-2,4-dione]
1000 to 10000 nM | Cc1cc(N2CC3(CCN(C(C)c4ccc5scnc5c4)CC3)CC2=O)n2nccc2n1 (racemic) [Example 72]
1000 to 10000 nM | CC(c1ccc2scnc2c1)N1CCC2(CC1)CC(=O)N(Cc1ccc(S(C)(=O)=O)cc1)C2 (racemic) [Example 17, 8-(1-(benzo[d]thiazol-5-yl)ethyl)-2-(4-(methylsulfonyl)benzyl)-2,8-diazaspiro[4.5]decan-3-one]
50 to 200 nM | CC(c1ccc2scnc2c1)N1CCC2(CC1)CN(c1cncnc1)C(=O)N2 (racemic) [Example 37, 8-(1-(benzo[d]thiazol-5-yl)ethyl)-3-(pyrimidin-5-yl)-1,3,8-triazaspiro[4.5]decan-2-one]

SMILES | IC50
CC(c1ccc2scnc2c1)N1CCC2(CC1)C(=O)N(c1ccc(C#N)cc1)c1ccccc12 (racemic) [Example 25, 4-(1′-(1-(benzo[d]thiazol-5-yl)ethyl)-2-oxospiro[indoline-3,4′-piperidin]-1-yl)benzonitrile] | 50 to 200 nM
